Reference: US20220040255A1, “CHEMOTHERAPEUTIC REMODELING OF THE GUT MICROBIOME” (THE SCRIPPS RESEARCH INSTITUTE, priority 2018, published 2022)

Tested on: gut microbiota from cecum of LDLr−/− mice
Test: in vitro en masse screening assay (cecum culture, 16S rRNA sequencing)
Format: cell-based
Protocol: We have established the following in vitro compound screening protocol for en masse gut microbiome remodeling. We obtain fresh gut microbiome content from LDLr^-/- mice conditioned for at least two weeks on WD by surgically removing cecum under anaerobic conditions. These samples are then mixed with growth media, distributed in 96-well plates, and incubated overnight in the presence of the test peptides. The activity and selectivity of each peptide for remodeling the gut microbiota community was assessed en masse by 16S rRNA sequencing of each well. A number of challenges had to be addressed in developing this protocol, including inoculum handling, choice of growth media, assay duration, etc. Our current assay culture condition maintains 50 bacterial genera (overnight culture), which is fairly representative of the 67 genera found in the uncultured community (Table 2). We used a distance scoring algorithm for a more refined compound selection, in which peptides that remodel the microbiota community most completely from the dysfunctional state (WD fed) toward the functional state (CHD fed) are scored higher. Briefly, we first eliminate cyclic D,L-α-peptides that have broad-spectrum antibacterial activity (inhibit >95% of growth of ≥25% of species in the community). The remaining compounds are then ranked based on how well they suppressed the bacterial species that grew in abundance in WD-fed mice. […] Among these, 40 genera decreased while 14 genera increased in abundance by WD feeding. Within the increased 11 genera, there were 19 bacterial species that were also present in our in vitro culture system. Accordingly, compounds were scored highly when they reduced the levels of 19 bacterial species (lowest summed differences in relative abundance) that were increased by WD feeding to be more similar to their levels in a CHD-fed microbiome (see Table 3 for peptide ranking). Based on these analyses, we chose two peptides for further in vivo validation and efficacy studies: the cationic peptide 1, […] NO:1), and the neutral peptide 11, […] NO:11), which ranked high within their respective peptide clusters. In vitro cecum culture and peptide screening. We screened a number of parameters to optimize the in vitro culture condition for maximal bacterial diversity in liquid culture, including a survey of several different growth media, dilution factors for plate inoculation, and incubation times; further details of the development of this in vitro screen will be reported elsewhere. Female LDLr^-/- mice (8-10 weeks of age) were fed a WD for two weeks. Cecum harvest and all assay steps were performed under anaerobic conditions (Coy Laboratory anaerobic chamber). Cecum contents from three mice were pooled for the assay to provide enough material and to minimize the individual variation in gut microbiome. Cecum contents were suspended in PBS (1.5 ml PBS per 100 mg of cecum content). The mixture was vortexed for 5 min and the supernatant was transferred to a new tube. The cecum content mixture was further diluted in Chopped Meat Carbohydrate Broth (BD 297307) for in vitro peptide screening. […] The concentration of peptide stock in DMSO was calculated based on A280 measurement. For each peptide, an initial 20 mM stock was made in DMSO and diluted to 1 mM in 10% sucrose. From that, a 0.64 mM peptide dilution in 10% sucrose was prepared, and each peptide was further diluted into the assay for peptide screening at two concentrations (64 μM and 16 μM). Bacterial DNA was harvested after 24-hour peptide treatment and isolated with Microbial DNA isolation kit (Mo Bio) following the manufacturer's instructions. 16S rRNA gene sequencing and processing. PCR amplicons of the V3-V4 16S rRNA region were amplified and sequenced using an Illumina MiSeq platform. […]

[1] = ranking in remodeling WD gut microbiota toward CHD microbiota composition

c[lLwHoK]
ranked distance to chow [1]: 7

c[wFkSkSkS]
ranked distance to chow [1]: 19

c[wWwKsKsK]
ranked distance to chow [1]: 12

c[LlWhQk]
ranked distance to chow [1]: 5

c[wLlWkKkS]
ranked distance to chow [1]: 10

c[fWwYqHhQ]
ranked distance to chow [1]: 25

c[YwElYsKq]
ranked distance to chow [1]: 17

c[wLeLwKsK]
ranked distance to chow [1]: 9

c[WlLlKkKs] [WllLlKkKs]
ranked distance to chow [1]: 20

c[FwHlYoHq]
ranked distance to chow [1]: 18

c[YlYlYkSo]
ranked distance to chow [1]: 13

c[wLwSeQeO] [wLwSeQsO]
ranked distance to chow [1]: 16

O=C(N[C@H](CO)[C@H](O)c1ccc([N+](=O)[O-])cc1)C(Cl)Cl [Chm, chloramphenicol, reference compound]
ranked distance to chow (Chm- 2 μg): 4 | ranked distance to chow (Chm- 8 μg): 24

c[YlWyKhAe]
ranked distance to chow [1]: 23

c[wLfKwKkK]
ranked distance to chow [1]: 6

c[lFlAlKhK]
ranked distance to chow [1]: 8

c[wLhLwKrK]
ranked distance to chow [1]: 11

c[wLlEeKkN]
ranked distance to chow [1]: 21

c[wLwSeQhK]
ranked distance to chow [1]: 22

c[WwLlHsKk
ranked distance to chow [1]: 3

c[WwQoHdKt]
ranked distance to chow [1]: 15

c[WlWlWkSk]
ranked distance to chow [1]: 1
